Assay results published in patent US20130243720A1, “Iron(II)-Containing A Treatments for Hyperphosphatemia” (priority 2006, published 2013).

Tested on: Sprague Dawley (SD) rats
Experiment: Effects of compounds for reducing urinary phosphate levels in rats fed treatment diet
Type: in vivo, rat
Conditions: male SD rats; for Urinary Phosphate: urine collected on days 5 and 6
Experimental: House male Sprague Dawley (SD) rats were used for the experiments. The rats were placed singly in wire-bottom cages, fed with Purina 5002 diet, and allowed to acclimate for at least 5 days prior to experimental use.
To establish baseline phosphorus excretion, the rats were placed in metabolic cages for 48 hours. Their urine was collected and its phosphorus content analyzed with a Hitachi analyzer to determine phosphorus excretion in mg/day. Any rats with outlying values were excluded; and the remainder of the rats was distributed into groups.
Purina 5002 was used as the standard diet. The compound or compound mixture being tested was mixed with Purina 5002 to result in a final concentration 0.5% (or as indicated in the table) by weight. Cellulose at 0.5% by weight was used as a negative control. For each rat, 200 g of diet was prepared.
Each rat was weighed and placed on the standard diet. After 4 days the standard diet was replaced with the treatment diet (or control diet for the control group). On days 5 and 6, urine samples from the rats at 24 hours (+/−30 minutes) were collected and analyzed. The test rats were again weighed, and any weight loss or gain was calculated. Any remaining food was also weighed to calculate the amount of food consumed per day. A change in phosphorus excretion relative to baseline and cellulose negative control was calculated using Excel program.

[1] = 0.5% of diet, urinary phosphorus excretion relative to baseline and cellulose negative control
[2] = compound mixed with Purina 5002 diet at 0.5% by weight

## CC(=O)[O-].CC(=O)[O-].[Fe+2] [Iron(II) acetate, iron(II) acetate]
0.30% of diet, relative to baseline and cellulose negative control
  % Control: 67.4%
0.30% of diet
  Urinary Phosphate: 12.1 mg/day
[1]
  % Control: 65.9%
0.5% of diet, urinary phosphorus excretion relative to baseline and cellulose negative control, listed as Iron(II) Acetate
  % Control: 69.1%
0.7% of diet, relative to baseline and cellulose negative control
  % Control: 44.4%
0.7% of diet
  Urinary Phosphate: 8.0 mg/day
[2]
  Urinary Phosphate: 12.8 mg/day
Compound mixed with Purina 5002 diet at 0.5% by weight, listed as Iron(II) Acetate
  Urinary Phosphate: 12.4 mg/day

## [Fe+2].[O-2] [Iron(II)oxide, iron(II) oxide]
[1]
  % Control: 104.3%
[2]
  Urinary Phosphate: 20.2 mg/day

## O=C([O-])C(=O)[O-].[Fe+2] [Iron(II) oxalate, iron(II) oxalate]
[1]
  % Control: 89.0%
[2]
  Urinary Phosphate: 14.8 mg/day

## CC(=O)/C=C(/C)O.CC(=O)/C=C(/C)O.[Fe] [Fe(II) acetylacetonato]
[1]
  % Control: 55.6%
[2]
  Urinary Phosphate: 10.4 mg/day

## (+)-iron(II) L-ascorbate
[1]
  % Control: 78.6%
[2]
  Urinary Phosphate: 13.4 mg/day
